Measurements published in patent publication US10947229B2, “Dimethyl amino azetidine amides as JAK inhibitors” (THERAVANCE BIOPHARMA R&D IP, LLC, priority 2018, dated 2021).

Legend:
Lung S9 metabolism = type: in vitro ADME, human; details: for Compound Remaining at 60 min (%) / microsomal CLint at 1 µM: human lung S9, 1 μM compound, 1 mg/mL S9 protein; for Sulfate Appearance: human lung S9, qualitative O-sulfate metabolite peak; for microsomal CLint at 1 µM: human lung S9 fraction, pH 7.4, NADPH and PAPS, read-out: Clearance
Experimental: The time 0, 15, 30, and 60 minute samples were analyzed for parent compound by high resolution LC-MS/MS. Lung S9 fractions from human (lot 1410245) were purchased from XenoTech LLC (Lenexa, Kans.). NADPH (Sigma Aldrich, N1630) and 3-phosphoadenosine 5-phosphosulfate (PAPS) (Sigma Aldrich, A1651) were purchased from Sigma Aldrich (St. Louis, Mo.). Acetonitrile and water were obtained from VWR (Radnor, Pa.) and were of HPLC grade or better. Raloxifene and formic acid was purchased from Sigma Aldrich (St. Louis, Mo.). Lung S9 incubations were performed in a water bath at 37° C. in a 96-well polypropylene plate. […] Louis, Mo.), 3 mM magnesium chloride (Sigma Aldrich, M1028) and in the presence of 100 μM PAPS (Sigma-Aldrich, St. […] Incubation volumes consisted of 400 μL and time points were taken at 0, 15, 30, and 60 minutes by the removal of a 70 μL aliquot and dilution into 140 μL acetonitrile (0% formic acid). All samples were centrifuged at 2250 g for 10 minutes at 5° C. Supernatant […] was taken from the centrifuged samples and diluted into 100 μL HPLC water containing internal standard. The samples were run on a Dionex Ultimate 3000 Auto sampler and analyzed using a Thermo Q-Exactive High Resolution Mass Spectrometer (Thermo, Waltham, Mass.) in Full Scan mode in conjunction with an Atlantis T3 column 3 μM-2.1×50 mm (Waters Inc., 186003717). Mobile Phase A consisted of Water+0.2% formic acid and Mobile Phase B consisted of acetonitrile +0.2% formic acid. Peak integration was accomplished using Gubbs GMSU software (Gubbs Inc., Alpharetta, Ga.). For each sample, peak area ratios were calculated by dividing the analyte peak area by the internal standard peak area. For each incubation, the peak area ratios of the analytes in each t0 was set to 100%, and the peak areas ratios from the 60 minute samples were converted to percentages remaining relative to the corresponding t0. Determination of sulfate metabolite formation was made qualitatively by observation of early-eluting peak in the parent ion channel which, based on historical internal data, corresponded to the O-sulfate metabolite of each parent compound.

JAK2 = JAK2 (Homo sapiens (Human), UniProt O60674); assay: Biochemical JAK kinase assay (LanthaScreen), JAK2; details: for Ki: read-out: JAK2 pKi (converted)
Experimental: (§1) Recombinant GST-tagged JAK enzymes and a GFP-tagged STAT1 peptide substrate were obtained from Life Technologies. Serially diluted compounds were pre-incubated with each of the four JAK enzymes and the substrate in white 384-well microplates (Corning) at ambient temperature for 1 h. ATP was subsequently added to initiate the kinase reactions in 10 μL total volume, with 1% DMSO. […] Kinase reactions were allowed to proceed for 1 hour at ambient temperature before a 10 μL preparation of EDTA (10 mM final concentration) and Tb-anti-pSTAT1 ([…]) antibody (Life Technologies, 2 nM final concentration) in TR-FRET dilution buffer (Life Technologies) was added. The plates were allowed to incubate at ambient temperature for 1 h before being read on the EnVision reader (Perkin Elmer). Emission ratio signals (520 nm/495 nm) were recorded and utilized to calculate the percent inhibition values based on DMSO and background controls. For dose-response analysis, percent inhibition data were plotted vs. compound concentrations, and IC50 values were determined from a 4-parameter robust fit model with the Prism software (GraphPad Software). Results were expressed as pIC50 (negative logarithm of IC50) and subsequently converted to pKi (negative logarithm of dissociation constant, Ki) using the Cheng-Prusoff equation. Test compounds having a lower Ki value or higher pKi value in the four JAK assays show greater inhibition of JAK activity.

JAK1 = JAK1 (Homo sapiens (Human), UniProt P23458); assay: Biochemical JAK kinase assay (LanthaScreen), JAK1; details: read-out: JAK1 pKi (converted)
Experimental: as §1, with “equation.” for “equation. Test compounds having a lower Ki value or higher pKi value in the four JAK assays show greater inhibition of JAK activity.”

[1] = system: IL-2 stimulated pSTAT5 in Tall-1 T cells; assay: Inhibition of IL-2 stimulated pSTAT5 in Tall-1 T cells; type: cell-based; details: IL-2 stimulated pSTAT5, Tall-1 human T cell line; read-out: Tall-1 pIC50 (converted)
Experimental: The potency of test compounds for inhibition of interleukin-2 (IL-2) stimulated STAT5 phosphorylation was measured in the Tall-1 human T cell line (DSMZ) using AlphaLisa. Because IL-2 signals through JAK1/3, this assay provides a measure of JAK1/3 cellular potency.
Phosphorylated STAT5 was measured via the AlphaLISA SureFire Ultra pSTAT5 (Tyr694/699) kit (PerkinElmer).
Human T cells from the Tall-1 cell line were cultured in a 37° C., 5% CO2 humidified incubator in RPMI (Life Technologies) supplemented with 15% Heat Inactivated Fetal Bovine Serum (FBS, Life Technologies), 2 mM Glutamax (Life Technologies), 25 mM HEPES (Life Technologies) and 1× Pen/Strep (Life Technologies). Compounds were serially diluted in DMSO and dispensed acoustically to empty wells. Assay media (phenol red-free DMEM (Life Technologies) supplemented with 10% FBS (ATCC)) was dispensed (4 μL/well) and plates shaken at 900 rpm for 10 mins. Cells were seeded at 45,000 cells/well in assay media (4 μL/well), and incubated at 37° C., 5% CO2 for 1 hour, followed by the addition of IL-2 (R&D Systems; final concentration 300 ng/mL) in pre-warmed assay media (4 μL) for 30 minutes. After cytokine stimulation, cells were lysed with 6 ul of 3× AlphaLisa Lysis Buffer (PerkinElmer) containing 1× PhosStop and Complete tablets (Roche). The lysate was shaken at 900 rpm for 10 minutes at room temperature (RT). Phosphorylated STAT5 was measured via the pSTAT5 AlphaLisa kit (PerkinElmer). Freshly prepared acceptor bead mixture was dispensed onto lysate (5 μL) under green filtered <100 lux light. Plates were shaken at 900 rpm for 2 mins, briefly spun down, and incubated for 2 hrs at RT in the dark. Donor beads were dispensed (5 μL) under green filtered <100 lux light. Plates were shaken at 900 rpm for 2 minutes, briefly spun down, and incubated overnight at RT in the dark. Luminescence was measured with excitation at 689 nm and emission at 570 nm using an EnVision plate reader (PerkinElmer) under green filtered <100 lux light.
To determine the inhibitory potency of test compounds in response to IL-2, the average emission intensity of beads bound to pSTAT5 was measured in a human T cell line. IC50 values were determined from analysis of the inhibition curves of signal intensity versus compound concentration. Data are expressed as pIC50 (negative decadic logarithm IC50) values (mean±standard deviation).

Tyk2 = Tyk2 (Homo sapiens (Human), UniProt P29597); assay: Biochemical JAK kinase assay (LanthaScreen), Tyk2
Experimental: as §1, with “equation.” for “equation. Test compounds having a lower Ki value or higher pKi value in the four JAK assays show greater inhibition of JAK activity.”

Sequence of JAK2 (O60674 whole entry): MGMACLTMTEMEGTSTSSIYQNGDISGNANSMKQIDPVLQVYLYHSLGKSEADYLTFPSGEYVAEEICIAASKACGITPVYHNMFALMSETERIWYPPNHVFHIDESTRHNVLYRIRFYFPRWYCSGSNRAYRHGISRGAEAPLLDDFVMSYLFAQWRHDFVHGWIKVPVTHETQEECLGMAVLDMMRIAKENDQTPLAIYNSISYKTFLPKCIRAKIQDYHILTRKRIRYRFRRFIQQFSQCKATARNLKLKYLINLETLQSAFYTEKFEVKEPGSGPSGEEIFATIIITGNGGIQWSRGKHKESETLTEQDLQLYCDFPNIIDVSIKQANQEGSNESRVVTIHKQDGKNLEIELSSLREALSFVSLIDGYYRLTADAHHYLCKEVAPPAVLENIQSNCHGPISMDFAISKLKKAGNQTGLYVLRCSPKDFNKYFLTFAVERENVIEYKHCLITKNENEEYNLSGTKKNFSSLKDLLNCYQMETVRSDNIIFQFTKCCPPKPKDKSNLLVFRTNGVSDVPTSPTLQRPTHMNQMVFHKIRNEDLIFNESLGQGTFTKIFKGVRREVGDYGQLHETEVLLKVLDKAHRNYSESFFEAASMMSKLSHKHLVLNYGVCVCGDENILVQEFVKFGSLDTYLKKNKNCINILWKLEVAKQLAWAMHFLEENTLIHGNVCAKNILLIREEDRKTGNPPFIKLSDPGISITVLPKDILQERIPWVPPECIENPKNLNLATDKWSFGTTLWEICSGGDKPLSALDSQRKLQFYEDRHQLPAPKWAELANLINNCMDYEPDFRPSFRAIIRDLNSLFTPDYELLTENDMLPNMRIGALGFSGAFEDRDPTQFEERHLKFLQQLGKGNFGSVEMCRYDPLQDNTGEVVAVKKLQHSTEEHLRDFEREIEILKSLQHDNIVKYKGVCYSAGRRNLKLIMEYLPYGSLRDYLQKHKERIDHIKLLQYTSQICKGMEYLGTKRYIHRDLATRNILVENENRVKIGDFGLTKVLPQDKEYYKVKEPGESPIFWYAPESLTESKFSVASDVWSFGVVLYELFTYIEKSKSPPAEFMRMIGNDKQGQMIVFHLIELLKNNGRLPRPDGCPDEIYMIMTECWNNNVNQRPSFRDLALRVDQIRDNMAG
Sequence of JAK1 (P23458 whole entry): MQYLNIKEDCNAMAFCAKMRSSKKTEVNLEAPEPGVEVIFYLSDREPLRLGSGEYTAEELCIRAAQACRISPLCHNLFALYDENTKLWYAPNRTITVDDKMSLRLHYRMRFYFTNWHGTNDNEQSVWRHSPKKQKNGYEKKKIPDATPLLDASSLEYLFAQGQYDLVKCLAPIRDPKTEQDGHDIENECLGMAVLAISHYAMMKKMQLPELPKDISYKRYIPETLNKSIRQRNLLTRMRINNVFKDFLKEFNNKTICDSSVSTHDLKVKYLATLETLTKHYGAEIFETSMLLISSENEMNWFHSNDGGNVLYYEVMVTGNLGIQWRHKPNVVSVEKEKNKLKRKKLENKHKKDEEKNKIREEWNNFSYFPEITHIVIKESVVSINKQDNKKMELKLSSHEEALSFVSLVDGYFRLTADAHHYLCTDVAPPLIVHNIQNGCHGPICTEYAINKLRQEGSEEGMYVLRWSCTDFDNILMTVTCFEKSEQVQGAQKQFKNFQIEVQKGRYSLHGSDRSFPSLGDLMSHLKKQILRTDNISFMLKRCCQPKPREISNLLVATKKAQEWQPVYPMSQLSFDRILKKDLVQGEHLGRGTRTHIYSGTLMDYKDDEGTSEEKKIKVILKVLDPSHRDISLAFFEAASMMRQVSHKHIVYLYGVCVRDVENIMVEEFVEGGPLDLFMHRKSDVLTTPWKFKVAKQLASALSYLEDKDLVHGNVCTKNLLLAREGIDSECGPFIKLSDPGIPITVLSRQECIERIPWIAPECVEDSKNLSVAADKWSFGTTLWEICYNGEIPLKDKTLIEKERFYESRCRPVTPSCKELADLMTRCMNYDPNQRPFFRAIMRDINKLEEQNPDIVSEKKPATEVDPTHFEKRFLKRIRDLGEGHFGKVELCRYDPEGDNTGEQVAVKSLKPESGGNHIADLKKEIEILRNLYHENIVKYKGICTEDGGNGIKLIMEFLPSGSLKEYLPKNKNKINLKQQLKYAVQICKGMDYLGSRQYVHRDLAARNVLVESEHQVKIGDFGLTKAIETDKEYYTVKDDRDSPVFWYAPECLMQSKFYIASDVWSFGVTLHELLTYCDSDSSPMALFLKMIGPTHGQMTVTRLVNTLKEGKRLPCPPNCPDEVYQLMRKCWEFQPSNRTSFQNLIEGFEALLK
Sequence of Tyk2 (P29597 whole entry): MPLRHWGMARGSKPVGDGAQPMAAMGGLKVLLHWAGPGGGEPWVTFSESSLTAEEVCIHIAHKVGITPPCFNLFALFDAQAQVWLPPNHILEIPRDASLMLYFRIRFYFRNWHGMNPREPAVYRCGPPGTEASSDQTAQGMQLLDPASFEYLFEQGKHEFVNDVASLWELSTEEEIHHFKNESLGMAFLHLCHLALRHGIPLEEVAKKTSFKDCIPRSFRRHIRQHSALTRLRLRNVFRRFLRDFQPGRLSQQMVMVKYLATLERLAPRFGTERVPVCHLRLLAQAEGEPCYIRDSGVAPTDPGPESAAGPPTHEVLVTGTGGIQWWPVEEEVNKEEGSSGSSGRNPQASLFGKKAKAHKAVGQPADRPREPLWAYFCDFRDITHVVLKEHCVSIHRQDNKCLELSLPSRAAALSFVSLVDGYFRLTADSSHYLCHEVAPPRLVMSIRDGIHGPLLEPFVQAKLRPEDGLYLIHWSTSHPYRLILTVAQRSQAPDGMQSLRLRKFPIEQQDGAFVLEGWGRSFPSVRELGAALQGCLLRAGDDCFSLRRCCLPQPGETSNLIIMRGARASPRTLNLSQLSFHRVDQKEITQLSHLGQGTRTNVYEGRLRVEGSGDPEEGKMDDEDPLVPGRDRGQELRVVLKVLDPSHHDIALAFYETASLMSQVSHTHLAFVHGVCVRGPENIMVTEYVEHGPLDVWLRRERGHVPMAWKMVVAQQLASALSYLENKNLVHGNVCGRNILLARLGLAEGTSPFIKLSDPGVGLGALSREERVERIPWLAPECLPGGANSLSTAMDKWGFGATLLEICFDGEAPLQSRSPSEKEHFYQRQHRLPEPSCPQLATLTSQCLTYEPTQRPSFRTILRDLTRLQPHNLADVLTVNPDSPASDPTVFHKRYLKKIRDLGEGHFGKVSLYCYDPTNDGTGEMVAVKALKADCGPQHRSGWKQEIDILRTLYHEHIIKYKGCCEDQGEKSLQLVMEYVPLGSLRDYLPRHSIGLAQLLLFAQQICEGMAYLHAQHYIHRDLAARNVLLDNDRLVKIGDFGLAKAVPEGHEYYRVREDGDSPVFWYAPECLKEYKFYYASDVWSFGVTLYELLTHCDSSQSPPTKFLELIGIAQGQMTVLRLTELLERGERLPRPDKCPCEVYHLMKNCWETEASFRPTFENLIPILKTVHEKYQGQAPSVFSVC

SMILES | Compound Remaining at 60 min (%) (Lung S9 metabolism) | Sulfate Appearance (Lung S9 metabolism) | microsomal CLint at 1 µM (Lung S9 metabolism) [µL/min/mg] | Ki (JAK2) [pM] | Ki (JAK1) [pM] | IC50 [1] [pM] | JAK2 pKi (JAK2) | Tyk2 pKi (Tyk2)
CCc1cc(O)ccc1-c1ccc2c(-c3nc4c([nH]3)CN(CC)[C@H](C(=O)N3CC(C)(N(C)C)C3)C4)n[nH]c2c1 [Compound 3, (S)-(3-(dimethylamino)-3-methylazetidin-1-yl)(5-ethyl-2-(6-(2-ethyl-4-hydroxyphenyl)-1H-indazol-3-yl)-4,5,6,7-tetrahydro-3H-imidazo[4,5-c]pyridin-6-yl)methanone] | 97 | Yes | 0.8 |  |  |  |  | 
CCCN1Cc2[nH]c(-c3n[nH]c4cc(-c5ccc(O)cc5CC)ccc34)nc2C[C@H]1C(=O)N1CC(C)(N(C)C)C1 [Compound 6, (S)-(3-(dimethylamino)-3-methylazetidin-1-yl)(2-(6-(2-ethyl-4-hydroxyphenyl)-1H-indazol-3-yl)-5-propyl-4,5,6,7-tetrahydro-3H-imidazo[4,5-c]pyridin-6-yl)methanone] | 90 | Yes | 1.8 | 31.6 |  |  |  | 
CCCN1Cc2[nH]c(-c3n[nH]c4cc(-c5ccc(O)cc5CC)ccc34)nc2C[C@H]1C(=O)N1CC(N(C)C)C1 [Compound 5, (S)-(3-(dimethylamino)azetidin-1-yl)(2-(6-(2-ethyl-4-hydroxyphenyl)-1H-indazol-3-yl)-5-propyl-4,5,6,7-tetrahydro-3H-imidazo[4,5-c]pyridin-6-yl)methanone] | 96 | Yes | 1.6 |  | 31.6 |  |  | 
CCc1cc(O)c(F)cc1-c1ccc2c(-c3nc4c([nH]3)CN(C(C)C)[C@H](C(=O)N3CC(C)(N(C)C)C3)C4)n[nH]c2c1 [Compound C-4, (S)-(3-(dimethylamino)-3-methylazetidin-1-yl)(2-(6-(2-ethyl-5-fluoro-4-hydroxyphenyl)-1H-indazol-3-yl)-5-isopropyl-4,5,6,7-tetrahydro-3H-imidazo[4,5-c]pyridin-6-yl)methanone] | 4 | Yes | 53.2 | 12.6 | 79.4 | 2510 |  | 
CCc1cc(O)ccc1-c1ccc2c(-c3nc4c([nH]3)CN(CC)[C@H](C(=O)N3CC(N(C)C)C3)C4)n[nH]c2c1 [Compound 2, (S)-(3-(dimethylamino)azetidin-1-yl)(5-ethyl-2-(6-(2-ethyl-4-hydroxyphenyl)-1H-indazol-3-yl)-4,5,6,7-tetrahydro-3H-imidazo[4,5-c]pyridin-6-yl)methanone] | 98 | Yes | 0.6 |  |  |  |  | 
CCc1cc(O)c(F)cc1-c1ccc2c(-c3nc4c([nH]3)CN(CC)[C@H](C(=O)N3CC(C)(N(C)C)C3)C4)n[nH]c2c1 [Compound C-3, (S)-(3-(dimethylamino)-3-methylazetidin-1-yl)(5-ethyl-2-(6-(2-ethyl-5-fluoro-4-hydroxyphenyl)-1H-indazol-3-yl)-4,5,6,7-tetrahydro-3H-imidazo[4,5-c]pyridin-6-yl)methanone] | 5 | Yes | 50.6 |  |  | 2000 | 10.9 | 9.4
CCc1cc(O)c(F)cc1-c1ccc2c(-c3nc4c([nH]3)CN(C(C)C)[C@H](C(=O)N3CC(N(C)C)C3)C4)n[nH]c2c1 [Compound C-1, (S)-(3-(dimethylamino)azetidin-1-yl)(2-(6-(2-ethyl-5-fluoro-4-hydroxyphenyl)-1H-indazol-3-yl)-5-isopropyl-4,5,6,7-tetrahydro-3H-imidazo[4,5-c]pyridin-6-yl)methanone] | 6 | Yes | 49 |  |  |  |  | 
CCc1cc(O)ccc1-c1ccc2c(-c3nc4c([nH]3)CN(C(C)C)[C@H](C(=O)N3CC(C)(N(C)C)C3)C4)n[nH]c2c1 [Compound 4, (S)-(3-(dimethylamino)-3-methylazetidin-1-yl)(2-(6-(2-ethyl-4-hydroxyphenyl)-1H-indazol-3-yl)-5-isopropyl-4,5,6,7-tetrahydro-3H-imidazo[4,5-c]pyridin-6-yl)methanone] | 100 | Yes |  |  |  |  |  | 
CCCN1Cc2[nH]c(-c3n[nH]c4cc(-c5cc(F)c(O)cc5CC)ccc34)nc2C[C@H]1C(=O)N1CC(C)(N(C)C)C1 [Compound C-6, (S)-(3-(dimethylamino)-3-methylazetidin-1-yl)(2-(6-(2-ethyl-5-fluoro-4-hydroxyphenyl)-1H-indazol-3-yl)-5-propyl-4,5,6,7-tetrahydro-3H-imidazo[4,5-c]pyridin-6-yl)methanone] | 4 | Yes | 53.5 |  |  | 2510 | 10.7 | 
